{"source": "patent US10100056B2", "about": "“SHIP1 modulators and methods related thereto” (Aquinox Pharmaceuticals (Canada) Inc., priority 2013, dated 2018)"}
{"system": "Akt phosphorylation in Molt-4 (PTEN-/SHIP1+) cells", "assay": "Akt phosphorylation in lymphocytes (Western blot, IGF-1 stimulated)", "assay_type": "cell-based", "set-up": "key: +: inhibits Akt phosphorylation at 30 μM; −: no effect on Akt phosphorylation at 30 μM", "details": "30 μM; Molt-4 (SHIP1+) cells, IGF-1 100 ng/mL", "description": "Molt-4 (PTEN-/SHIP1+) cells are starved in serum free RPMI for overnight. In a 15 mL conical tube, 2-3 million serum starved cells (1 million cells per mL) are treated with various concentrations of test compound ([…]) for 30 min at 37° C. followed by stimulation with 100 ng/mL of IGF-1 for 1 hour at 37° C. After stimulation, cells are washed once with ice-cold DPBS and lysed with Lysis Buffer (20 mM Tris-HCl, pH 7.5, 140 mM NaCl, 1% NP-40, Complete Mini Protease Inhibitor Cocktail, 10 mM NaF, 1 mM Na3VO4, 1 mM β-glycerolphosphate) on ice for 30 min with vortexing every 10 min. Samples are then centrifuged at 13,000 rpm for 20 min, and supernatants are collected as total cell lysate samples. Protein concentration is determined using bicinchonic acid assay, and about 15 μg of total protein from each sample is loaded and separated on a 4-12% Tris-Glycine gel. After SDS-PAGE, proteins are transferred from the gel to a nitrocellulose membrane. The membrane is blocked in 5% BSA in PBS containing 0.1% Tween-20 (PBS-T) for 1 hour at room temperature before probing with primary antibodies for overnight at 4° C. The following antibodies are used: mouse anti-SHIP1 (1:500 dilution; Santa Cruz, Calif., USA), rabbit anti-phospho-Akt (Ser473) (1:1000 dilution; Cell Signaling Technologies, MA, USA), rabbit anti-Akt (1:1000; Cell Signaling Technologies, MA, USA), and rabbit anti-actin (1:2000; Cell Signaling Technologies, MA, USA). The membrane is then incubated with goat anti-rabbit or anti-mouse secondary antibodies (1:3000) for 1 hour at room temperature. Target proteins on the membrane are detected with ECL solution and exposed on a film."}
{"compound": "CN(C)C[C@H]1C2=C(CC[C@@H]1[C@@]1(C)CC[C@H](O)C[C@@H]1CO)C(C)(C)CC2", "note": "[Cpd. No. 3, (1S,3S,4R)-4-((4R,5S)-4-((dimethylamino)methyl)-1,1-dimethyl-2,3,4,5,6,7-hexahydro-1H-inden-5-yl)-3-(hydroxymethyl)-4-methylcyclohexanol]", "Molt-4 (SHIP+): inhibition of Akt phosphorylation": "+"}
{"compound": "C=C1CC[C@H]2[C@H](O)[C@@H]([C@@]3(C)CC[C@H](O)C[C@@H]3CCN3CCCC3)CC[C@]12C", "note": "[Cpd. No. 11, (3aR,4R,5R,7aS)-5-((1S,2S,4S)-4-hydroxy-1-methyl-2-(2-(pyrrolidin-1-yl)ethyl)cyclohexyl)-7a-methyl-1-methyleneoctahydro-1H-inden-4-ol]", "Molt-4 (SHIP+): inhibition of Akt phosphorylation": "+"}
{"compound": "C=C1CC[C@H]2[C@H](CNC(=O)C(C)(C)C)[C@@H]([C@@]3(C)CC[C@H](O)C[C@@H]3CO)CC[C@]12C", "note": "[Cpd. No. 20, N-(((3aS,4R,5S,7aS)-5-((1R,2S,4S)-4-hydroxy-2-(hydroxymethyl)-1-methylcyclohexyl)-7a-methyl-1-methyleneoctahydro-1H-inden-4-yl)methyl)pivalamide]", "Molt-4 (SHIP+): inhibition of Akt phosphorylation": "+"}
{"compound": "C=C1CC[C@H]2[C@H](CNC(=O)C(C)C)[C@@H]([C@@]3(C)CC[C@H](O)C[C@@H]3CO)CC[C@]12C", "note": "[Cpd. No. 21, N-(((3aS,4R,5S,7aS)-5-((1R,2S,4S)-4-hydroxy-2-(hydroxymethyl)-1-methylcyclohexyl)-7a-methyl-1-methyleneoctahydro-1H-inden-4-yl)methyl)isobutyramide]", "Molt-4 (SHIP+): inhibition of Akt phosphorylation": "+"}
{"compound": "C=C1CC[C@H]2[C@H](CNC(=O)CC)[C@@H]([C@@]3(C)CC[C@H](O)C[C@@H]3CO)CC[C@]12C", "note": "[Cpd. No. 22, N-(((3aS,4R,5S,7aS)-5-((1R,2S,4S)-4-hydroxy-2-(hydroxymethyl)-1-methylcyclohexyl)-7a-methyl-1-methyleneoctahydro-1H-inden-4-yl)methyl)propionamide]", "Molt-4 (SHIP+): inhibition of Akt phosphorylation": "+"}
{"compound": "C=C1CC[C@H]2[C@H](CNC(=O)CCC)[C@@H]([C@@]3(C)CC[C@H](O)C[C@@H]3CO)CC[C@]12C", "note": "[Cpd. No. 23, N-(((3aS,4R,5S,7aS)-5-((1R,2S,4S)-4-hydroxy-2-(hydroxymethyl)-1-methylcyclohexyl)-7a-methyl-1-methyleneoctahydro-1H-inden-4-yl)methyl)butyramide]", "Molt-4 (SHIP+): inhibition of Akt phosphorylation": "+"}
{"compound": "C=C1CC[C@H]2[C@H](CNC(=O)CCCC)[C@@H]([C@@]3(C)CC[C@H](O)C[C@@H]3CO)CC[C@]12C", "note": "[Cpd. No. 24, N-(((3aS,4R,5S,7aS)-5-((1R,2S,4S)-4-hydroxy-2-(hydroxymethyl)-1-methylcyclohexyl)-7a-methyl-1-methyleneoctahydro-1H-inden-4-yl)methyl)pentanamide]", "Molt-4 (SHIP+): inhibition of Akt phosphorylation": "+"}
{"compound": "C=C1CC[C@H]2[C@H](CCN)[C@@H]([C@@]3(C)CC[C@H](O)C[C@@H]3CO)CC[C@]12C", "note": "[Cpd. No. 29, (1S,3S,4R)-4-((3aS,4R,5S,7aS)-4-(2-aminoethyl)-7a-methyl-1-methyleneoctahydro-1H-inden-5-yl)-3-(hydroxymethyl)-4-methylcyclohexanol]", "Molt-4 (SHIP+): inhibition of Akt phosphorylation": "+"}
{"compound": "C=C1CC[C@H]2[C@H](CNCc3cc(OC)cc(OC)c3)[C@@H]([C@@]3(C)CC[C@H](O)C[C@@H]3CO)CC[C@]12C", "note": "[Cpd. No. 32, (1S,3S,4R)-4-((3aS,4R,5S,7aS)-4-((3,5-dimethoxybenzylamino)methyl)-7a-methyl-1-methyleneoctahydro-1H-inden-5-yl)-3-(hydroxymethyl)-4-methylcyclohexanol]", "Molt-4 (SHIP+): inhibition of Akt phosphorylation": "+"}
{"compound": "C=C1CC[C@H]2[C@H](CNCc3ccc4c(c3)OCO4)[C@@H]([C@@]3(C)CC[C@H](O)C[C@@H]3CO)CC[C@]12C", "note": "[Cpd. No. 34, (1S,3S,4R)-4-((3aS,4R,5S,7aS)-4-((benzo[d][1,3]dioxol-5-ylmethylamino)methyl)-7a-methyl-1-methyleneoctahydro-1H-inden-5-yl)-3-(hydroxymethyl)-4-methylcyclohexanol]", "Molt-4 (SHIP+): inhibition of Akt phosphorylation": "+"}
{"compound": "C=C1CC[C@H]2[C@H](O)[C@@H]([C@@]3(C)CC[C@H](O)C[C@@H]3CCN3CCN(C)CC3)CC[C@]12C", "note": "[Cpd. No. 48, (3aR,4R,5R,7aS)-5-((1S,2S,4S)-4-hydroxy-1-methyl-2-(2-(4-methylpiperazin-1-yl)ethyl)cyclohexyl)-7a-methyl-1-methyleneoctahydro-1H-inden-4-ol]", "Molt-4 (SHIP+): inhibition of Akt phosphorylation": "+"}
{"compound": "C=C1CC[C@H]2[C@H](O)[C@@H]([C@@]3(C)CC[C@H](O)C[C@@H]3CCn3ccnc3)CC[C@]12C", "note": "[Cpd. No. 50, (3aR,4R,5R,7aS)-5-((1S,2S,4S)-2-(2-(1H-imidazol-1-yl)ethyl)-4-hydroxy-1-methylcyclohexyl)-7a-methyl-1-methyleneoctahydro-1H-inden-4-ol]", "Molt-4 (SHIP+): inhibition of Akt phosphorylation": "+"}
{"compound": "C=C1CC[C@H]2[C@H](O)[C@@H]([C@@]3(C)CC[C@H](O)C[C@@H]3CCOc3ccccn3)CC[C@]12C", "note": "[Cpd. No. 57, (3aR,4R,5R,7aS)-5-((1S,2S,4S)-4-hydroxy-1-methyl-2-(2-(pyridin-2-yloxy)ethyl)cyclohexyl)-7a-methyl-1-methyleneoctahydro-1H-inden-4-ol]", "Molt-4 (SHIP+): inhibition of Akt phosphorylation": "+"}
{"compound": "C=C1CC[C@H]2[C@H](CNC(=O)c3ccco3)[C@@H]([C@@]3(C)CC[C@H](O)C[C@@H]3CO)CC[C@]12C", "note": "[Cpd. No. 81, N-(((3aS,4R,5S,7aS)-5-((1R,2S,4S)-4-hydroxy-2-(hydroxymethyl)-1-methylcyclohexyl)-7a-methyl-1-methyleneoctahydro-1H-inden-4-yl)methyl)furan-2-carboxamide]", "Molt-4 (SHIP+): inhibition of Akt phosphorylation": "+"}
{"compound": "C=C1CC[C@H]2[C@H](CNC(=O)C3CC3)[C@@H]([C@@]3(C)CC[C@H](O)C[C@@H]3CO)CC[C@]12C", "note": "[Cpd. No. 82, N-(((3aS,4R,5S,7aS)-5-((1R,2S,4S)-4-hydroxy-2-(hydroxymethyl)-1-methylcyclohexyl)-7a-methyl-1-methyleneoctahydro-1H-inden-4-yl)methyl)cyclopropanecarboxamide]", "Molt-4 (SHIP+): inhibition of Akt phosphorylation": "+"}
{"compound": "C=C1CC[C@H]2[C@H](CNC(=O)C3CCCCC3)[C@@H]([C@@]3(C)CC[C@H](O)C[C@@H]3CO)CC[C@]12C", "note": "[Cpd. No. 83, N-(((3aS,4R,5S,7aS)-5-((1R,2S,4S)-4-hydroxy-2-(hydroxymethyl)-1-methylcyclohexyl)-7a-methyl-1-methyleneoctahydro-1H-inden-4-yl)methyl)cyclohexanecarboxamide]", "Molt-4 (SHIP+): inhibition of Akt phosphorylation": "+"}
{"compound": "C=C1CC[C@H]2[C@H](CNC(=O)NCC)[C@@H]([C@@]3(C)CC[C@H](O)C[C@@H]3CO)CC[C@]12C", "note": "[Cpd. No. 84, 1-ethyl-3-(((3aS,4R,5S,7aS)-5-((1R,2S,4S)-4-hydroxy-2-(hydroxymethyl)-1-methylcyclohexyl)-7a-methyl-1-methyleneoctahydro-1H-inden-4-yl)methyl)urea]", "Molt-4 (SHIP+): inhibition of Akt phosphorylation": "+"}
{"compound": "C=C1CC[C@H]2[C@H](CNC(=S)NC)[C@@H]([C@@]3(C)CC[C@H](O)C[C@@H]3CO)CC[C@]12C", "note": "[Cpd. No. 85, 1-(((3aS,4R,5S,7aS)-5-((1R,2S,4S)-4-hydroxy-2-(hydroxymethyl)-1-methylcyclohexyl)-7a-methyl-1-methyleneoctahydro-1H-inden-4-yl)methyl)-3-methylthiourea]", "Molt-4 (SHIP+): inhibition of Akt phosphorylation": "+"}
{"compound": "C=C1CC[C@H]2[C@H](CNC(=O)C(F)(F)F)[C@@H]([C@@]3(C)CC[C@H](O)C[C@@H]3CO)CC[C@]12C", "note": "[Cpd. No. 86, 2,2,2-trifluoro-N-(((3aS,4R,5S,7aS)-5-((1R,2S,4S)-4-hydroxy-2-(hydroxymethyl)-1-methylcyclohexyl)-7a-methyl-1-methyleneoctahydro-1H-inden-4-yl)methyl)acetamide]", "Molt-4 (SHIP+): inhibition of Akt phosphorylation": "+"}
{"compound": "C=C1CC[C@H]2[C@H](CC#N)[C@@H]([C@@]3(C)CC[C@H](O)C[C@@H]3CO)CC[C@]12C", "note": "[Cpd. No. 87, 2-((3aS,4R,5S,7aS)-5-((1R,2S,4S)-4-hydroxy-2-(hydroxymethyl)-1-methylcyclohexyl)-7a-methyl-1-methyleneoctahydro-1H-inden-4-yl)acetonitrile]", "Molt-4 (SHIP+): inhibition of Akt phosphorylation": "+"}
{"compound": "C=C1CC[C@H]2[C@H](CNOC)[C@@H]([C@@]3(C)CC[C@H](O)C[C@@H]3CO)CC[C@]12C", "note": "[Cpd. No. 88, (1S,3S,4R)-3-(hydroxymethyl)-4-((3aS,4R,5S,7aS)-4-((methoxyamino)methyl)-7a-methyl-1-methyleneoctahydro-1H-inden-5-yl)-4-methylcyclohexanol]", "Molt-4 (SHIP+): inhibition of Akt phosphorylation": "+"}
{"compound": "C=C1CC[C@H]2[C@H](CNC#N)[C@@H]([C@@]3(C)CC[C@H](O)C[C@@H]3CO)CC[C@]12C", "note": "[Cpd. No. 89, N-(((3aS,4R,5S,7aS)-5-((1R,2S,4S)-4-hydroxy-2-(hydroxymethyl)-1-methylcyclohexyl)-7a-methyl-1-methyleneoctahydro-1H-inden-4-yl)methyl)cyanamide]", "Molt-4 (SHIP+): inhibition of Akt phosphorylation": "+"}
